Laboratory results as given in ChEMBL document CHEMBL3751739, “Investigating the generation of hydrogen sulfide from the phosphonamidodithioate slow-release donor GYY4137” (Medchemcomm, 2015).
The source made the active and inactive calls. No cut-off for these calls is given here.

Tests used:
[1] = Induction of H2S release in phosphate buffer at 200 uM using 5,5'-dithiobis-(2-nitrobenzoic acid)
[2] = Cytotoxicity against human Jurkat T cells assessed as reduction in cell viability at 200 uM after 24 hrs by tryphan blue assay
RAW264.7 [3] = details: Mus musculus, at 200 µM
Description: Antiinflammatory activity in mouse RAW264.7 cells assessed as inhibition of LPS-induced NO production at 200 uM preincubated for 1 hr before LPS challenge measured after 24 hrs by Griess method

RAW264.7 [4] = details: Mus musculus, at 200 µM; remark: listed apart in the source
Description: Antiinflammatory activity in mouse RAW264.7 cells assessed as inhibition of LPS-induced PGE2 production at 200 uM preincubated for 1 hr before LPS challenge measured after 24 hrs by ELISA

## COc1ccc(P([O-])(=S)N2CCOCC2)cc1.[K+] (centres undefined)
[1]
  Activity: Not Active
[2]
  Activity: Non-toxic
RAW264.7 [3]
  inhibition: inactive
RAW264.7 [4]
  inhibition: inactive
